For this assay, the system named is L1210 leukemia ip in BDF1 mice, survival T/C. Description: NCI In Vivo Anticancer Drug Screen. Data for tumor model L1210 Leukemia (intraperitoneal) in B6D2F1 (BDF1) mice. To be noted: endpoint: mean survival time, higher = longer survival. The essentials:
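Survival endpoint. Drug-treated group vs vehicle group, expressed as T divided by C. Tumor passaged by transplantation.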

[1] abbreviates: dose: 100.0 mg/kg/injection, schedule: Q01DX001 (ip), vehicle: Klucel (hydroxypropylcellulose) (HPC).
Setting [2] is: dose: 200.0 mg/kg/injection, schedule: Q01DX001 (ip), vehicle: Klucel (hydroxypropylcellulose) (HPC).
Where [3] appears, read: dose: 400.0 mg/kg/injection, schedule: Q01DX001 (ip), vehicle: Klucel (hydroxypropylcellulose) (HPC).
Where [4] appears, read: dose: 100.0 mg/kg/injection, schedule: Q01DX001 (ip), vehicle: carboxymethylcellulose (CMC).
[5] abbreviates: dose: 200.0 mg/kg/injection, schedule: Q01DX001 (ip), vehicle: carboxymethylcellulose (CMC).
Setting [6] is: dose: 400.0 mg/kg/injection, schedule: Q01DX001 (ip), vehicle: carboxymethylcellulose (CMC).
The mark [7] stands for this setting: dose: 100.0 mg/kg/injection, schedule: Q04DX003 (ip), vehicle: saline with Tween-80.
[8] abbreviates: dose: 200.0 mg/kg/injection, schedule: Q04DX003 (ip), vehicle: saline with Tween-80.
Setting [9] is: dose: 100.0 mg/kg/injection, schedule: Q01DX001 (ip), vehicle: saline.
Setting [10] is: dose: 200.0 mg/kg/injection, schedule: Q01DX001 (ip), vehicle: saline.
Setting [11] is: dose: 400.0 mg/kg/injection, schedule: Q01DX001 (ip), vehicle: saline.
Setting [12] is: dose: 100.0 mg/kg/injection, schedule: Q01DX009 (ip), vehicle: saline with Tween-80.
The mark [13] stands for this setting: dose: 200.0 mg/kg/injection, schedule: Q01DX009 (ip), vehicle: saline with Tween-80.
Where [14] appears, read: dose: 400.0 mg/kg/injection, schedule: Q04DX003 (ip), vehicle: saline with Tween-80.
Setting [15] is: dose: 100.0 mg/kg/injection, schedule: Q04DX003 (ip), vehicle: Klucel (hydroxypropylcellulose) (HPC).
[16] abbreviates: dose: 200.0 mg/kg/injection, schedule: Q04DX003 (ip), vehicle: Klucel (hydroxypropylcellulose) (HPC).
Where [17] appears, read: dose: 400.0 mg/kg/injection, schedule: Q04DX003 (ip), vehicle: Klucel (hydroxypropylcellulose) (HPC).
The mark [18] stands for this setting: dose: 100.0 mg/kg/injection, schedule: Q01DX009 (ip), vehicle: Klucel (hydroxypropylcellulose) (HPC).
Where [19] appears, read: dose: 200.0 mg/kg/injection, schedule: Q01DX009 (ip), vehicle: Klucel (hydroxypropylcellulose) (HPC).
The mark [20] stands for this setting: dose: 400.0 mg/kg/injection, schedule: Q01DX009 (ip), vehicle: Klucel (hydroxypropylcellulose) (HPC).
Where [21] appears, read: dose: 100.0 mg/kg/injection, schedule: Q04DX003 (ip), vehicle: saline.
[22] abbreviates: dose: 200.0 mg/kg/injection, schedule: Q04DX003 (ip), vehicle: saline.
Where [23] appears, read: dose: 400.0 mg/kg/injection, schedule: Q04DX003 (ip), vehicle: saline.

Several values for one entry are separate records, joined by “and”; a condition that tells them apart may be missing. Equal entries are not always repeated. Toxic doses and inconclusive results are not listed.

This note sets out measurements from PubChem BioAssay AID248 (DTP/NCI, 2004).

`CC(C)(SCCc1ccccn1)C(N)C(=O)O` (stereo unspecified): the T/C is 102 % of control under setting [1], 107 % of control under setting [2] and 96 % of control under setting [3].

Take `C=CC(C)(C)c1c(OC(C)=O)cc2oc3c(OC(C)=O)c(OC(C)=O)cc(CC=C(C)C)c3c(=O)c2c1O`: the T/C is 95 % of control under setting [4], 92 % of control under setting [5] and 111 % of control under setting [6].

As to `CCOP(=S)(OCC)N1c2ccccc2Sc2ccccc21`, the T/C runs as follows: under setting [7], 92 % of control; under setting [8], 91 % of control.

Consider `S=c1nc[nH]c2c1ncn2C1CCCO1` (stereo unspecified), for which, under “dose: 75.0 mg/kg/injection, schedule: Q01DX Z (ip), vehicle: methylcellulose (MC)”, the T/C is 159 % of control.

For the molecule `COC1CC(OS(=O)(=O)c2ccc(C)cc2)C(OS(=O)(=O)c2ccc(C)cc2)C(C)O1` (stereo unspecified), the T/C runs as follows: under setting [9], 100 % of control; under setting [10], 98 % of control; under setting [11], 98 % of control.

For `CC1OC(CO)C(O)C(O)C1NC(=O)c1ccccc1` (stereo unspecified), the T/C is 98 % of control (dose: 50.0 mg/kg/injection, schedule: Q01DX009 (ip), vehicle: saline with Tween-80); 103 % of control under setting [12]; 103 % of control under setting [13].

Turning to `Oc1[nH]c2ccccc2c1N=NC(=S)Nc1ccccc1`, the T/C is, setting by setting: (dose: 75.0 mg/kg/injection, schedule: Q01DX001 (ip), vehicle: saline) 91 % of control; (dose: 150.0 mg/kg/injection, schedule: Q01DX001 (ip), vehicle: saline) 87 % of control.

Turning to `N#C/C(=C\c1cc(Br)cc(Br)c1O)c1ccc([N+](=O)[O-])cc1`, the T/C reads like this: under setting [7], 97 % of control; under setting [8], 87 % of control; under setting [14], 102 % of control.

Regarding `CC(=O)CC(=O)Nc1ccccc1Cl`, the T/C under setting [15] is 89 % of control, the T/C under setting [16] was 92 % of control and the T/C under setting [17] was 96 % of control.

As to `CNc1ccccc1Cc1ccccc1`, the T/C under setting [18] was 96 % of control; the T/C under setting [15] is 103 % of control; the T/C under setting [19] was 99 % of control; the T/C under setting [16] is 93 % of control; the T/C under setting [17] was 98 % of control.

For `C=CCn1c(/N=C\N(C)C)cc(=O)[nH]c1=O`, the T/C by setting is: under setting [18], 103 % of control; under setting [15], 97 % of control; under setting [19], 107 % of control; under setting [16], 97 % of control; under setting [20], 100 % of control; under setting [17], 89 % of control.

On to `COC(=O)C(=NO)C(=O)OC`, for which the T/C reads like this: (dose: 100.0 mg/kg/injection, schedule: Q01DX009 (ip), vehicle: saline) 98 % of control; under setting [21], 93 % of control; (dose: 200.0 mg/kg/injection, schedule: Q01DX009 (ip), vehicle: saline) 106 % of control; under setting [22], 95 % of control; (dose: 400.0 mg/kg/injection, schedule: Q01DX009 (ip), vehicle: saline) 106 % of control; under setting [23], 96 % of control.

In the case of `Cc1c(C)c(CO)c(C)c(C)c1CO`, the T/C was 94 % of control (dose: 12.5 mg/kg/injection, schedule: Q04DX003 (ip), vehicle: Klucel (hydroxypropylcellulose) (HPC)); 92 % of control (dose: 25.0 mg/kg/injection, schedule: Q04DX003 (ip), vehicle: Klucel (hydroxypropylcellulose) (HPC)); 97 % of control (dose: 50.0 mg/kg/injection, schedule: Q04DX003 (ip), vehicle: Klucel (hydroxypropylcellulose) (HPC)).

With `NCC1OC(n2cnc3c(N)ncnc32)C(O)C1O` (stereo unspecified), the T/C is 98 % of control (dose: 50.0 mg/kg/injection, schedule: Q01DX001 (ip), vehicle: carboxymethylcellulose (CMC)); 102 % of control under setting [4]; 107 % of control under setting [5]; 109 % of control under setting [6].

Regarding `CC(C)C(CNC1=NCCN1)c1cccc2ccccc12` (stereo unspecified), the T/C was 93 % of control (dose: 12.5 mg/kg/injection, schedule: Q04DX003 (ip), vehicle: saline with Tween-80); 93 % of control (dose: 25.0 mg/kg/injection, schedule: Q04DX003 (ip), vehicle: saline with Tween-80); 119 % of control (dose: 50.0 mg/kg/injection, schedule: Q04DX003 (ip), vehicle: saline with Tween-80).

As to `CCCCCCCCCCCCOc1ccc(Br)cc1`, the T/C runs as follows: under setting [7], 98 % of control; under setting [8], 92 % of control; under setting [14], 96 % of control.

Regarding `C[Si](C)(C)Oc1ccc(O[Si](C)(C)C)cc1`, the T/C is 92 % of control (dose: 100.0 mg/kg/injection, schedule: Q01DX009 (ip), vehicle: other); 94 % of control (dose: 200.0 mg/kg/injection, schedule: Q01DX009 (ip), vehicle: other); 101 % of control (dose: 400.0 mg/kg/injection, schedule: Q01DX009 (ip), vehicle: other).

For the molecule `CC1=C(N2CCN(c3ccc(Cl)cc3)CC2)C(=O)CC(C)(C)C1`, the T/C reads like this: under setting [9], 97 % of control; under setting [10], 101 % of control; under setting [11], 103 % of control.

As for `CC1(C)C2CCC1(C)C(NCc1cc(Cl)cc(Cl)c1O)C2` (stereo unspecified), the T/C is, setting by setting: under setting [15], 92 % of control; under setting [16], 103 % of control; under setting [17], 98 % of control.

Regarding `COC(=O)/C(=C\c1ccc(OC)cc1)CC(=O)O`, the T/C by setting is: under setting [1], 96 % of control; under setting [18], 101 % of control and 104 % of control; (dose: 100.0 mg/kg/injection, schedule: Q04DX002 (ip), vehicle: Klucel (hydroxypropylcellulose) (HPC)) 98 % of control and 100 % of control; under setting [15], 90 % of control; under setting [2], 93 % of control; under setting [19], 95 % of control and 101 % of control. Besides, the T/C (dose: 200.0 mg/kg/injection, schedule: Q04DX002 (ip), vehicle: Klucel (hydroxypropylcellulose) (HPC)) was 95 % of control and 113 % of control; the T/C under setting [16] was 97 % of control; the T/C under setting [3] was 104 % of control; the T/C under setting [20] was 93 % of control and 108 % of control; the T/C (dose: 400.0 mg/kg/injection, schedule: Q04DX002 (ip), vehicle: Klucel (hydroxypropylcellulose) (HPC)) is 102 % of control and 103 % of control; the T/C under setting [17] is 97 % of control.

On to `c1ccc2nc(NN=C3CCCCC3)ccc2c1`, for which the T/C by setting is: (dose: 10.0 mg/kg/injection, schedule: Q01DX001 (ip), vehicle: saline) 107 % of control; (dose: 20.0 mg/kg/injection, schedule: Q01DX001 (ip), vehicle: saline) 97 % of control; (dose: 40.0 mg/kg/injection, schedule: Q01DX001 (ip), vehicle: saline) 95 % of control.

For `CCCC(=O)OCC(=O)c1ccc(-c2ccccc2)cc1`, the T/C was 96 % of control under setting [9], 94 % of control under setting [10] and 94 % of control under setting [11].

On to `O=C1OC(=C(Br)Br)C2C3C=CC(CC3)C12` (stereo unspecified), for which the T/C is, setting by setting: under setting [21], 95 % of control; under setting [22], 98 % of control; under setting [23], 98 % of control.

In the case of `O=C(Nc1ccc(Cl)cc1C(F)(F)F)OCCOc1ccc([N+](=O)[O-])cc1`, the T/C under setting [12] was 91 % of control; the T/C under setting [13] is 94 % of control; the T/C (dose: 400.0 mg/kg/injection, schedule: Q01DX009 (ip), vehicle: saline with Tween-80) is 95 % of control.
